# From publication PMC9050769 (European Journal of Drug Metabolism and Pharmacokinetics, 2022)
# Read-outs that look alike come from different tables or passages of the source.
# Assays:
# mu (µ) opioid receptor = details: higher than that of tramadol; cited from earlier work
# [1] = more potent than tramadol; cited from earlier work
# [2] = Observed tramadol and ODT blood concentrations; format: in vivo, human
# [3] = cited from earlier work
# [4] = before inclusion of CrCL covariate (base model)
# [5] = final model (with CrCL covariate)
smiles,measurement,setting,value
CN(C)C[C@H]1CCCC[C@]1(O)c1cccc(O)c1 [O-desmethyltramadol],binding affinity to the mu (µ) opioid receptor relative to tramadol,mu (µ) opioid receptor,300 fold
same,potency relative to tramadol,[1],100 times
same,BSV in CLm,final model,21.6%
same,"CLm/F, clearance of O-desmethyltramadol",final model,0.143 L/h
same,ODT concentration,[2]; patients received 100 mg of tramadol,around 100 µg/l
same,"ODT/tramadol concentration ratio at steady state, range","[2]; trough samples, n = 17",0.08–0.82
CNC(C)C1CCC(N)C(OC2C(N)CC(N)C(OC3OCC(C)(O)C(NC)C3O)C2O)O1 (stereo not drawn) [gentamicin],clearance in frail older patients compared to fit older patients,[3],reduced
COc1cccc(C2(O)CCCCC2CN(C)C)c1 (stereo not drawn) [tramadol],BSV in CL/F,[4],78.9%
same,BSV in V2/F,[4],148%
same,BSV in Q,before inclusion of ISAR covariate (base model),4.71%
same,BSV in V1/F,final model,73.8%
same,BSV in kt,final model,78.5%
same,"Q, inter-compartmental clearance",final model,0.0426 L/h
same,"V2/F, apparent volume of distribution in peripheral compartment",final model,0.379 L
same,between-subject variability (BSV) in absorption rate constant,final model,37.8%
same,BSV in CL/F,[5],6.61%
same,BSV in V2/F,[5],97.4%
same,BSV in Q,final model (with ISAR covariate),2.19%
